Experimental data reported in ChEMBL document CHEMBL6078687 (J Med Chem, 2024).
pEC50: −log10 of the molar value.

System: Influenza A virus
Experiment: Antiviral activity against oseltamivir-resistant Influenza A virus A/H1N1/pdm09 infected in MDCK cells assessed as inhibition of plaque formation measured after 2 days
Conditions: 48 h

Structure (SMILES)	pEC50
CCC(CC)O[C@@H]1C=C(C(=O)O)C[C@H](NCc2ccc(OCc3cccc(B(O)O)c3)cc2C)[C@H]1NC(C)=O	7.52
CCC(CC)O[C@@H]1C=C(C(=O)O)C[C@H](NCc2c(C)cc(OCc3cccc(B(O)O)c3)cc2C)[C@H]1NC(C)=O	6.82
CCC(CC)O[C@@H]1C=C(C(=O)O)C[C@H](NCc2ccc(OCc3ccc(B(O)O)cc3)cc2F)[C@H]1NC(C)=O	6.24
CCC(CC)O[C@@H]1C=C(C(=O)O)C[C@H](NCc2ccc(OCc3cccc(B(O)O)c3)cc2F)[C@H]1NC(C)=O	6.77
CCC(CC)O[C@@H]1C=C(C(=O)O)C[C@H](NCc2ccc(OCc3ccc(B(O)O)cc3)cc2Cl)[C@H]1NC(C)=O	6.40
CCC(CC)O[C@@H]1C=C(C(=O)O)C[C@H](NCc2ccc(OCc3ccc(B(O)O)cc3)cc2C)[C@H]1NC(C)=O	7.40
CCC(CC)O[C@@H]1C=C(C(=O)O)C[C@H](NCc2ccc(OCc3cccc(B(O)O)c3)cc2Cl)[C@H]1NC(C)=O	7.52
CCC(CC)O[C@@H]1C=C(C(=O)O)C[C@H](N)[C@H]1NC(C)=O [OSELTAMIVIR CARBOXYLATE]	< 4.70
